# Results taken from a melting point compilation (Tetko et al.; mined from patent text by program, amines drawn as free bases though some values may be those of a salt).
row,Structure (SMILES),melting point [°C]
1,O=C1CCC(N2Cc3cc(CNC(=O)Nc4ccc(-c5ncc[nH]5)cc4)ccc3C2=O)C(=O)N1 (stereo not drawn),190 to 192
2,CCOCc1ccc(CN(O)C(N)=O)o1,80.5
3,CC(O)CCc1cc(C(C)(C)C)c(O)c(C(C)(C)C)c1 (stereo not drawn),62 to 67
4,Cc1ccc(-c2nc(Cl)nc(Cl)c2-c2ccccc2)cc1,130 to 132
5,O=C(O)/C=C\C=C(c1ccccc1F)c1ccccc1F,147 to 148
6,COC(=O)Nc1nc2cnc3ccccc3c2n1CC(C)(C)O,225
7,CCN(CC)C(=O)n1cc(C=O)c(S(=O)(=O)c2cccc(Cl)c2C)n1,95 to 97
8,COc1cc(C)c(C(=O)c2c(Cl)cccc2Cl)cc1OCC1CC1,152
9,COC(=O)C(=CNC1CC1)C(=O)c1cc(F)c(Cl)cc1OC,128 to 132
10,CCOC(=O)c1c(O)c2cc(Cl)ccc2n(C)c1=O,141 to 143
11,Nc1ccc(C(=O)C=Cc2ccncc2)cc1,207
12,COc1cccc(Cc2cnc(-c3ccccc3)c(-c3ccccc3)n2)c1,65 to 66
13,OCCCc1cccc2ccncc12,66 to 69
14,O=C1C(=Cc2ccc(Cl)c(Cl)c2)CSCC1=Cc1ccc(Cl)c(Cl)c1,151 to 152
15,COc1ccc2c(c1)C(=O)OC(=O)C2,138 to 140
16,CCC(CC)NC(=O)c1ccc(-c2scc(-c3ccccc3Cl)c2CC(=O)O)cc1,101 to 103
17,COC(=O)c1ccc2c(c1)CC(=O)O2,102 to 103
18,O=C1c2ccccc2C(=O)N1Cc1noc(CCl)n1,96.5 to 98
19,N#Cc1ccc2c(c1)C=CCCO2,69 to 71
20,COc1ccc(Br)cc1-c1cc(-c2cccc(Br)c2)on1,149 to 150
21,NC(=O)c1cc2cc(F)ccc2nc1N,232 to 236
22,CC(C)(C)NC(=O)C1CCN(C(=O)CCl)CC1,140 to 142
23,CCOCCOc1c(C)cc(Oc2ccc3c(c2)C=C(C(=O)O)CCS3(=O)=O)cc1C,149 to 153
24,Cc1cc2c(-c3ccc(Br)cc3)c(CC(=O)Nc3ccc(F)cc3C(F)(F)F)c(=O)oc2cc1Cl,262 to 264
25,CC(C(=O)NCCN(C)C)c1cccc(C(=O)c2cc3ccsc3s2)c1 (stereo not drawn),160

row,Structure (SMILES),melting point [°C]
1,CC1=C(C(=O)OCC(Cl)(Cl)Cl)N2C(=O)C(NC(=O)Cc3ccccc3)C2SC1 (stereo not drawn),162
2,CCn1c(N)c(-c2ncc[nH]2)c(=O)c2ccc(-c3ccc(CCCC(=O)NCc4ccncc4)cc3)nc21,240
3,COc1ccc(CCC(=O)Nc2c(C)c(C)c3c(c2C)C(c2ccc(C(C)C)cc2)C(C)(C)O3)cc1 (stereo not drawn),188 to 191
4,COc1ccc(F)c2c1C=C(C#N)CO2,133 to 135
5,O=C(O)C1CSC(c2ccccc2OCCCO[N+](=O)[O-])N1 (stereo not drawn),131 to 134
6,COC(=O)c1ccc(CNC(C)=O)c([N+](=O)[O-])c1,100 to 102
7,CCc1coc2c(-c3ccc(F)cc3)c(-c3ccc(S(C)(=O)=O)cc3)nn12,177 to 179
8,O=C(/C=C/c1ccccc1)Nc1cccc(F)c1,110
9,O=C(O)Cc1nsc(NC(=O)c2ccccc2)n1,173 to 175
10,Cc1cnc(CCc2ccccc2)n2c1c(CCCl)c1ccccc12,144 to 145
11,COc1cc(C(=O)N2CCN(c3ccc(N)cc3)CC2)cc(OC)c1O,182 to 183
12,CN(C(=O)Cc1cccc2ccccc12)C1c2ccccc2CC1N1CCCC1 (stereo not drawn),127
13,Cc1ccccc1-n1ccnc1SCCCO,47 to 48
14,COc1ccc2c(c1)C(C)(C)[C@H]1CCCN(C(C)=O)[C@H]1C2 (relative stereo),81 to 85
15,OCc1ccc(CCc2ccncc2)cc1,163 to 166
16,Cn1nnc(-c2ccc3c(ccn3-c3ccc(F)cc3)c2)n1,131 to 133
17,CNC(=O)c1cccc(NC(=O)Cc2ccc3c(c2)CC(C)(C)O3)c1,92 to 93
18,CC(C)Oc1c(C2=CC(C)(C)Oc3ccc(C#N)cc32)c(=O)c1=O,169 to 170
19,O=C(O)C1Cc2ccccc2N1C(=O)c1ccccc1 (stereo not drawn),209 to 210
20,CC(C)C(=O)Nc1ccc(-c2c[nH]c(=O)cn2)cc1,280
21,O=C(c1cc(C(F)(F)F)cc(C(F)(F)F)c1)N1CCN(C(=O)CN2CC3CC2CN3Cc2ccccc2)C(c2ccc(Cl)c(Cl)c2)C1 (racemic),75 to 77
22,O=C(O)CCc1cc2cc(Cl)ccc2n1S(=O)(=O)c1ccc2ccccc2c1,160
23,COc1cccc(S(=O)(=O)c2ccc3c(c2)c(CCNC(=O)OC(C)(C)C)c(C)n3C)c1,115 to 122
24,Cc1[nH]c(C#N)c(C)c1-c1nc2ccc(C(=O)c3ccccc3)cc2[nH]1,159 to 163
25,CC(=O)ON=Cc1cccc2c1C=Cc1ccccc1S2,144 to 145

row,Structure (SMILES),melting point [°C]
1,Cn1c(C(F)(F)F)cc(=O)n(-c2cc(OCCC3OCCO3)c(Cl)cc2F)c1=O,125 to 127
2,O=c1cc(N2CCCCC2)sn1CCc1ccccc1,106 to 108
3,COc1cccc(C=C2C(=O)NC(=O)N2C)c1,195 to 197
4,CN(C)CC(=O)Nc1ccc2[nH]c(=O)c3ccccc3c2c1,> 300
5,C=CC[C@@H]1C[C@@H](COS(C)(=O)=O)NC1=O,62 to 63
6,CCCc1nnc2n1-c1ccc(Br)cc1C(c1ccccn1)=NC2,184 to 186
7,COc1cc([N+](=O)[O-])c2c(c1OC)C(=O)CC2,202 to 204
8,N#CC(N)COc1ccc(Oc2ccccc2)cc1 (stereo not drawn),76.7
9,Cc1c(C)c(N2CCN(c3ccc(F)cc3)CC2)c(C)c2c1OC(C)(C)C2,175 to 177
10,CCCCCCC(C)NC1=NS(=O)(=O)c2sc(Cl)cc2N1 (stereo not drawn),179 to 181
11,NS(=O)(=O)c1ncccc1-c1ccccc1,172
12,CCCc1nc2c(N)nc3cc(OCc4cccc(N)c4)ccc3c2n1CC(C)C,228 to 230
13,O[C@H]1CC[C@H](N(Cc2ccccc2)Cc2ccccc2)CC1,97 to 99
14,COc1ccc(O)cc1/C=C/C(=O)CC(=O)/C=C/c1cc(O)ccc1Br,90 to 96
15,COc1cc(Br)c2oc(-c3ccc(OC)c(F)c3)nc2c1,175 to 177
16,COCCOc1ccc(OCC(O)CNCCOc2cccc(O)c2C(N)=O)cc1 (stereo not drawn),176 to 179
17,CNC(=O)n1nc(Oc2ccc(C(F)(F)F)cc2[N+](=O)[O-])cc1C(F)(F)F,102 to 104
18,CC(O)(C(O)C(O)=Cc1ccccc1)C(O)(Br)C(O)C(O)=Cc1ccccc1 (stereo not drawn),277 to 279
19,O=Cc1cn(-c2ccccc2)nc1-c1ccc([N+](=O)[O-])o1,208 to 209
20,Cc1c(-c2cc(Cl)cc(Cl)c2)ccc(N)c1C#N,182
21,COC(=O)COc1cccc(-c2nc(COc3ccc(COc4nn(-c5ccccc5)cc4C=O)cc3OC)c(C)o2)c1,107 to 109
22,CC(=O)Oc1ccc(C(=O)Nc2ccc(Cl)c(NC(=O)c3ccc(C#N)cc3)c2)cc1,195 to 196
23,COc1ccc(CNc2cccc3nc(-c4cccc(Cl)c4)oc23)cc1OC1CCCC1,133 to 134
